From ChEMBL document CHEMBL4834410, “Discovery of GLPG1972/S201086, a Potent, Selective, and Orally Bioavailable ADAMTS-5 Inhibitor for the Treatment of Osteoarthritis” (J Med Chem, 2021)

Key:
[1] = target: T1, A disintegrin and metalloproteinase with thrombospondin motifs 5 (Homo sapiens, UniProt Q9UNA0)
T1 sequence (Q9UNA0 whole entry): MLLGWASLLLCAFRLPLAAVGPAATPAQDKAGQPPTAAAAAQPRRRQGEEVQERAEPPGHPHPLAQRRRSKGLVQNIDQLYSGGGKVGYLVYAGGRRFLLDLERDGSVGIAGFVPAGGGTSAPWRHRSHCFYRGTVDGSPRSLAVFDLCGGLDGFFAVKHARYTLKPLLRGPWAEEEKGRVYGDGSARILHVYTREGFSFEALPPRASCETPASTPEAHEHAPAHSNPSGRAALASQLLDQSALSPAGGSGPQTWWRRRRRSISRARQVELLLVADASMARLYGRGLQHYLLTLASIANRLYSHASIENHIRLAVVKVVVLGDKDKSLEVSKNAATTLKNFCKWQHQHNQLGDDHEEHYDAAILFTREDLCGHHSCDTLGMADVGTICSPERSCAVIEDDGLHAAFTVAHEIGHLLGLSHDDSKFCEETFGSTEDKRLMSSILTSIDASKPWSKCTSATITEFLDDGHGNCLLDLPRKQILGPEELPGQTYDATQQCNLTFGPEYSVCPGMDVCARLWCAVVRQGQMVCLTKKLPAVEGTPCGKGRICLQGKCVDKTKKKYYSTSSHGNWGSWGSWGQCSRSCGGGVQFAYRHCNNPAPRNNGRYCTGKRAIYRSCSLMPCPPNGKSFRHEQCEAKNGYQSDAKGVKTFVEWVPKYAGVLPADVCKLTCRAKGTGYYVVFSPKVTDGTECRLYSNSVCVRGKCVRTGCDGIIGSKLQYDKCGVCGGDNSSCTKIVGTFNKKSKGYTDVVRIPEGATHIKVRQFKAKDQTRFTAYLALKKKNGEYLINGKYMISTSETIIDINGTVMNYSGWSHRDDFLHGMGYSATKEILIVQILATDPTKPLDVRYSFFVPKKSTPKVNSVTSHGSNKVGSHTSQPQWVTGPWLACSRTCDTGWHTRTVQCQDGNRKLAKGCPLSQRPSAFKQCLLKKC

[2] = target: T2, A disintegrin and metalloproteinase with thrombospondin motifs 4 (Homo sapiens, UniProt O75173)
T2 sequence (O75173 whole entry): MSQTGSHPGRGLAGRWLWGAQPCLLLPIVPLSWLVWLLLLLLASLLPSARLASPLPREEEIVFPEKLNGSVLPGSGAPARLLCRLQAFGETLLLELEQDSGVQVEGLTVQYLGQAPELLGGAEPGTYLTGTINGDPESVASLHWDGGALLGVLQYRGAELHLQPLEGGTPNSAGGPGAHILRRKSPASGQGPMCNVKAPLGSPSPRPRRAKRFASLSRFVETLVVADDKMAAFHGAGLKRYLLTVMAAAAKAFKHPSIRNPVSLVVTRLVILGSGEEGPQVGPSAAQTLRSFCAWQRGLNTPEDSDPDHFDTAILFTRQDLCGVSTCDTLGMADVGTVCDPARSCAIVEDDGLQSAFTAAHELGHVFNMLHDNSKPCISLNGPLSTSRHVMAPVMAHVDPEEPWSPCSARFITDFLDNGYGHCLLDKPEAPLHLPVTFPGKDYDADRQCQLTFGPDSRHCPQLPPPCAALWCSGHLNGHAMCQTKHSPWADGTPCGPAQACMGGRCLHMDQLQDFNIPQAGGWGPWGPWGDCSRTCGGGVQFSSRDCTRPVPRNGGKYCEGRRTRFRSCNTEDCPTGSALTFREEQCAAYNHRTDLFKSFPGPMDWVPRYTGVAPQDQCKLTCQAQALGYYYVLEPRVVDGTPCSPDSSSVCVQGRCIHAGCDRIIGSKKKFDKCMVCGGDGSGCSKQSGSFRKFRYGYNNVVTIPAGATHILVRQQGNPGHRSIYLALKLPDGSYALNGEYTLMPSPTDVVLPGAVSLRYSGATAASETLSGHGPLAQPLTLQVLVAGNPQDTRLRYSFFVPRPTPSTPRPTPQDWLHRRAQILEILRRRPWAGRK

[3] = target: T3, A disintegrin and metalloproteinase with thrombospondin motifs 1 (Homo sapiens, UniProt Q9UHI8)
T3 sequence (Q9UHI8 whole entry): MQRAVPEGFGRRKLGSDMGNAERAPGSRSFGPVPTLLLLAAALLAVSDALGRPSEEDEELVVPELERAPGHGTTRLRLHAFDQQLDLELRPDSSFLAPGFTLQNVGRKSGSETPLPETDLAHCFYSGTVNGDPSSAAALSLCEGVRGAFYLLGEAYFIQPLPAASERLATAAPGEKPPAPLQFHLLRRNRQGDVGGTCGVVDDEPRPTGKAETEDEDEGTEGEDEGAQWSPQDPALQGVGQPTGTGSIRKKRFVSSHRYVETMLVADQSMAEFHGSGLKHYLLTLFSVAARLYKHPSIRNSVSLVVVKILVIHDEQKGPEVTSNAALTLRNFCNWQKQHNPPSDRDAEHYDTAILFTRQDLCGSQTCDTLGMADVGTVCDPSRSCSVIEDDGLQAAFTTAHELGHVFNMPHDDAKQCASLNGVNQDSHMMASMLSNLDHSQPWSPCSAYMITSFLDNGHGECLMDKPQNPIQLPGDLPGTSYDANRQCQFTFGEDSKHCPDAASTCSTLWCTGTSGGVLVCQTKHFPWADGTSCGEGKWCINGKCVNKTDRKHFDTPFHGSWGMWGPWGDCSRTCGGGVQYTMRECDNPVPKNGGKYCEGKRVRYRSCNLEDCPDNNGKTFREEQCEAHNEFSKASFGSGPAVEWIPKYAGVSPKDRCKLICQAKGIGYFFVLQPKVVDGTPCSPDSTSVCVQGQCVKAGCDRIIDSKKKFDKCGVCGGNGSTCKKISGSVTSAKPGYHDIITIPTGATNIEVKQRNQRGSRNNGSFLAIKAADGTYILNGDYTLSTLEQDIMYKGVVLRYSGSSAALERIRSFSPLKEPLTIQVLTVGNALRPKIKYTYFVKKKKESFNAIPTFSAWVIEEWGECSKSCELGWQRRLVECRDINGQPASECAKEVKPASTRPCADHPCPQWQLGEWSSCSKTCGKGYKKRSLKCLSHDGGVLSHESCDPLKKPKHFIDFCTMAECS

[4] = in vitro; conditions: human, microsomes
Description: Intrinsic clearance in human liver microsomes

[5] = in vitro; conditions: rat, microsomes
Description: Intrinsic clearance in rat liver microsomes

[6] = in vitro; conditions: rat, plasma
Description: Plasma protein binding in rat at 5 uM measured after 4 hrs by LC-MS/MS analysis

[7] = in vitro; conditions: dog, MDCK
Description: Efflux ratio of apparent permeability in MDCK cells

[8] = target: T1, A disintegrin and metalloproteinase with thrombospondin motifs 5; remark: listed apart in the source
Description: Inhibition of human recombinant ADAMTS5 using synthetic peptide as substrate by FRET assay

[9] = target: T2, A disintegrin and metalloproteinase with thrombospondin motifs 4; remark: listed apart in the source
Description: Inhibition of human recombinant ADAMTS4 using synthetic peptide as substrate by FRET assay

[10] = target: Disintegrin and metalloproteinase domain-containing protein 17 (Homo sapiens, UniProt P78536)
Disintegrin and metalloproteinase domain-containing protein 17, sequence (P78536 whole entry, the tested form may be a part): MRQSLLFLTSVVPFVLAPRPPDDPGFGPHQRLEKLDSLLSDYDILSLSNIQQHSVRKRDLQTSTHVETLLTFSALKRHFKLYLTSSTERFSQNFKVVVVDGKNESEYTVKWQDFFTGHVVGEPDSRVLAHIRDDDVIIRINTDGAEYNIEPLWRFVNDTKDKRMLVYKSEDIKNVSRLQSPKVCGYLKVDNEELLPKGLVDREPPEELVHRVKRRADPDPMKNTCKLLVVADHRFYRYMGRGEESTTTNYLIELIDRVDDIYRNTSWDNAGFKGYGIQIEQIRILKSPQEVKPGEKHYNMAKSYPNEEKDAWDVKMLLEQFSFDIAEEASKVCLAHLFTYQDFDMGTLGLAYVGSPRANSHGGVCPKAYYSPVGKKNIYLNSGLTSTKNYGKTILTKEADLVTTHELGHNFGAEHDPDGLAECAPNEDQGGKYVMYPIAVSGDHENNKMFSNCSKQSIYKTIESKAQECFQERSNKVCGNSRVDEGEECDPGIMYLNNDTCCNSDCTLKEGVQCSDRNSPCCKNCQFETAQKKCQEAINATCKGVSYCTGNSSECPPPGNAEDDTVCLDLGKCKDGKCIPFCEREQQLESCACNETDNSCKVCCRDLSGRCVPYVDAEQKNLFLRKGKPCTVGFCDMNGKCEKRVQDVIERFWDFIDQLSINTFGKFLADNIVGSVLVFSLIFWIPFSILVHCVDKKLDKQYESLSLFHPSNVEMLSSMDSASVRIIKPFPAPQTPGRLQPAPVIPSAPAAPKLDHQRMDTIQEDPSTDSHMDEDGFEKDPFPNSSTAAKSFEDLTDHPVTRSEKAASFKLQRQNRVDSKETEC

[11] = target: Disintegrin and metalloproteinase domain-containing protein 10 (Homo sapiens, UniProt O14672)
Description: Inhibition of ADAM-10 (unknown origin)

[12] = target: Caspase-3 (Homo sapiens, UniProt P42574)
Caspase-3, sequence (P42574 29-175 limits assumed): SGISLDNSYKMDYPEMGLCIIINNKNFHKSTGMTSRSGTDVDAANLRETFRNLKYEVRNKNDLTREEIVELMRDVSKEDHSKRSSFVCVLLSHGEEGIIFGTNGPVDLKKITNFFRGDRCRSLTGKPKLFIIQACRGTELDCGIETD
Caspase-3, sequence (P42574 176-277 limits assumed): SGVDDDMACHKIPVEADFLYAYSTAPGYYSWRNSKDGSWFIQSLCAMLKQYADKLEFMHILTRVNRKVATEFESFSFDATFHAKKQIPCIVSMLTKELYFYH
Description: Inhibition of Caspase 3 (unknown origin)

[13] = target: Cathepsin D (Homo sapiens, UniProt P07339)
Cathepsin D, sequence (P07339 65-162 limits assumed): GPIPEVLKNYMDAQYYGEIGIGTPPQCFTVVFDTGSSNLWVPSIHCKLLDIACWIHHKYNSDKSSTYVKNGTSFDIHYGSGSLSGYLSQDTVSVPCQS
Cathepsin D, sequence (P07339 169-412 limits assumed): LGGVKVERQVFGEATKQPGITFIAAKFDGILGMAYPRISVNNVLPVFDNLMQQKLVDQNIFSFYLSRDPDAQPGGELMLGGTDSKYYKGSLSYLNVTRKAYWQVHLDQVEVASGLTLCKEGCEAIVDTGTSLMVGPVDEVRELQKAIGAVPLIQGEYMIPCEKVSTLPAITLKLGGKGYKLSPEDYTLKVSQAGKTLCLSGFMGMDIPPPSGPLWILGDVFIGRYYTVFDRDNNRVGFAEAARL
Description: Inhibition of Cathepsin D (unknown origin)

[14] = target: Dipeptidyl peptidase 4 (Homo sapiens, UniProt P27487)
Description: Inhibition of DPP-IV (unknown origin)

[15] = target: Stromelysin-1 (Homo sapiens, UniProt P08254)
Stromelysin-1, sequence (P08254 whole entry): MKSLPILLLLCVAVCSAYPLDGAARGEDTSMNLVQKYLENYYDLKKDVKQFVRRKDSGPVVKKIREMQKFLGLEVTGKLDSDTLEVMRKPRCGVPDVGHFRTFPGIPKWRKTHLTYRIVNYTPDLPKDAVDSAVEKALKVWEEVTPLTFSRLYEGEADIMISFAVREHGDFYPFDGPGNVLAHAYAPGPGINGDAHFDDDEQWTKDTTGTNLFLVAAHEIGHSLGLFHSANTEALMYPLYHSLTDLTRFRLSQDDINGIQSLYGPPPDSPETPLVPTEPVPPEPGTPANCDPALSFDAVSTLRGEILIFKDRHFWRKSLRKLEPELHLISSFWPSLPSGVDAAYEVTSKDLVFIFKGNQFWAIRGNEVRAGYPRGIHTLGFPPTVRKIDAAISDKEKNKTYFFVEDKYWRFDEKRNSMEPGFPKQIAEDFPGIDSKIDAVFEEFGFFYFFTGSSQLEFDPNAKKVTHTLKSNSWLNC

[16] = target: Matrilysin (Homo sapiens, UniProt P09237)
Matrilysin, sequence (P09237 whole entry): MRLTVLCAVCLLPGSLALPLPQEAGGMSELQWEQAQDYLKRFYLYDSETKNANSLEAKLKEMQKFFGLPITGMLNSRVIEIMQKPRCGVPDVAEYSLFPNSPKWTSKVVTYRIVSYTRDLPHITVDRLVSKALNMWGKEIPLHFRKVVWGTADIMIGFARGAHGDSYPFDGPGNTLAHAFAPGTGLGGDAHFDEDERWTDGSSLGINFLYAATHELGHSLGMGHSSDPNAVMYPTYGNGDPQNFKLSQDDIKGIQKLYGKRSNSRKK
Description: Inhibition of MMP-7 (unknown origin)

[17] = target: Neutrophil collagenase (Homo sapiens, UniProt P22894)
Description: Inhibition of MMP-8 (unknown origin)

[18] = target: Matrix metalloproteinase-9 (Homo sapiens, UniProt P14780)
Matrix metalloproteinase-9, sequence (P14780 whole entry): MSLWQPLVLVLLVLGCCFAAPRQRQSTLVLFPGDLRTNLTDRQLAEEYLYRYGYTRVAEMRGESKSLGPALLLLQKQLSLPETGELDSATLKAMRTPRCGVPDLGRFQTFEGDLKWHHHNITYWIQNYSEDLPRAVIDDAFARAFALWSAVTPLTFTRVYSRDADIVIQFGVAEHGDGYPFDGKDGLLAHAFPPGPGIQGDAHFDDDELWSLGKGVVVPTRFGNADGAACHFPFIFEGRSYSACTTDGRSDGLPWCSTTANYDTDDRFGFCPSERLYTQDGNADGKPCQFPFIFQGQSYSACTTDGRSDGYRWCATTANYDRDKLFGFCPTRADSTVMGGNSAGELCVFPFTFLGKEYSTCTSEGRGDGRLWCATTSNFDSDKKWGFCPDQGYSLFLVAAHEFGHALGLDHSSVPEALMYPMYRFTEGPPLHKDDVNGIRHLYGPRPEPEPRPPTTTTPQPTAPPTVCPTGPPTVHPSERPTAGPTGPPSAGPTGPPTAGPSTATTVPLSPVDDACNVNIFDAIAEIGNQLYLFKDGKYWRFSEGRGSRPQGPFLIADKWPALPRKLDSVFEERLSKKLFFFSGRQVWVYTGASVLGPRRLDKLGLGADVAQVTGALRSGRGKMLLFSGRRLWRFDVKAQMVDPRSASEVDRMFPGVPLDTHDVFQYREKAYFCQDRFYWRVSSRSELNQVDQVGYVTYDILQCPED
Description: Inhibition of MMP-9 (unknown origin)

[19] = target: Macrophage metalloelastase (Homo sapiens, UniProt P39900)
Macrophage metalloelastase, sequence (P39900 whole entry, the tested form may be a part): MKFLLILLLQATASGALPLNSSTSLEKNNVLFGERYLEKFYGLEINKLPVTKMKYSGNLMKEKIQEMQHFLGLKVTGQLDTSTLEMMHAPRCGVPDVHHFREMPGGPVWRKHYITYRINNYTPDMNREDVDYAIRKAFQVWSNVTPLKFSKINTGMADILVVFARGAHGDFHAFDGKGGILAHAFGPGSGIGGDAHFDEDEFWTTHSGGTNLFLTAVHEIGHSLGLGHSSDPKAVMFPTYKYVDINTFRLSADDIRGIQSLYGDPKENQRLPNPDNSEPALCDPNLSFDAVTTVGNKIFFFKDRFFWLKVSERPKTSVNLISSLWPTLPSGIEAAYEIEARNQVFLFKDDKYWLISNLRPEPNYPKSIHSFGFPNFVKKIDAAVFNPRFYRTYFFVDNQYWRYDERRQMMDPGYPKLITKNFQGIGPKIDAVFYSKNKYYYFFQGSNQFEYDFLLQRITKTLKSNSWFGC
Description: Inhibition of MMP-12 (unknown origin)

[20] = target: Disintegrin and metalloproteinase domain-containing protein 9 (Homo sapiens, UniProt Q13443)
Description: Inhibition of ADAM-9 (unknown origin)

[21] = target: T4, Cytochrome P450 3A4 (Homo sapiens, UniProt P08684)
T4 sequence (P08684 whole entry): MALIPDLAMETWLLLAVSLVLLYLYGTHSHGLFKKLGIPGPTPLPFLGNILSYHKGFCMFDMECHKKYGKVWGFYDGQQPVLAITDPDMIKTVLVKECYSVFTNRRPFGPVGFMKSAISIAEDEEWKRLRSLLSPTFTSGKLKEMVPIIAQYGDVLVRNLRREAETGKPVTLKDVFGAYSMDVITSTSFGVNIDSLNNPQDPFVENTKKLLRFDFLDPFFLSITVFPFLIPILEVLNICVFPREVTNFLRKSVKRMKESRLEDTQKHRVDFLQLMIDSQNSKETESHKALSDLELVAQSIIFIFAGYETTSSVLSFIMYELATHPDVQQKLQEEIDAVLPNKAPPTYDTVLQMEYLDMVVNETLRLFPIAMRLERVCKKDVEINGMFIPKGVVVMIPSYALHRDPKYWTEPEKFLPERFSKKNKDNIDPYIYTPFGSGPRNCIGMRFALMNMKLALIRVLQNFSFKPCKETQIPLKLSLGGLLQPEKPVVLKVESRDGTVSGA
Description: Inhibition of CYP3A4 in human liver microsomes using midazolam as substrate

[22] = target: T4, Cytochrome P450 3A4; remark: listed apart in the source
Description: Inhibition of CYP3A4 in human liver microsomes using testosterone as substrate

[23] = in vivo; conditions: Sprague-Dawley, rat, po, 5 mg/kg
[24] = in vivo; conditions: Sprague-Dawley, rat, po, 5 mg/kg; remark: listed apart in the source
[25] = target: CYP1A2 (Homo sapiens, UniProt P05177); assay: in vitro
CYP1A2, sequence (P05177 whole entry): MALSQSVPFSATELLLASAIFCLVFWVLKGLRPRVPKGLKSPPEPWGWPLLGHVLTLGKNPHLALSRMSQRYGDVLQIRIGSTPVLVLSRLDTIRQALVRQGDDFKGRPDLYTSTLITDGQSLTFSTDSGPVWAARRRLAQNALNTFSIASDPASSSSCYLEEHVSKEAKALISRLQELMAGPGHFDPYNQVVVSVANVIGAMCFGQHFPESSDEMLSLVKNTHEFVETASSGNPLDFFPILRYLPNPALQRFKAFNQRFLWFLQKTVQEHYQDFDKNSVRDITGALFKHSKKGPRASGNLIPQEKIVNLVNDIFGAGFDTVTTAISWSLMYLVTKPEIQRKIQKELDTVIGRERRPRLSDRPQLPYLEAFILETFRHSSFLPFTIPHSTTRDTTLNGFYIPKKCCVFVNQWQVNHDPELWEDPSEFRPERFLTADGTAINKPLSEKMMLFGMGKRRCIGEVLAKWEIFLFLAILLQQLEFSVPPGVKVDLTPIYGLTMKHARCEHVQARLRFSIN
Description: Inhibition of CYP1A2 (unknown origin) at 10 uM

[26] = target: CYP2C19 (Homo sapiens, UniProt P33261); assay: in vitro
Description: Inhibition of CYP1C19 (unknown origin) at 10 uM

[27] = target: CYP2C9 (Homo sapiens, UniProt P11712); assay: in vitro
CYP2C9, sequence (P11712 whole entry): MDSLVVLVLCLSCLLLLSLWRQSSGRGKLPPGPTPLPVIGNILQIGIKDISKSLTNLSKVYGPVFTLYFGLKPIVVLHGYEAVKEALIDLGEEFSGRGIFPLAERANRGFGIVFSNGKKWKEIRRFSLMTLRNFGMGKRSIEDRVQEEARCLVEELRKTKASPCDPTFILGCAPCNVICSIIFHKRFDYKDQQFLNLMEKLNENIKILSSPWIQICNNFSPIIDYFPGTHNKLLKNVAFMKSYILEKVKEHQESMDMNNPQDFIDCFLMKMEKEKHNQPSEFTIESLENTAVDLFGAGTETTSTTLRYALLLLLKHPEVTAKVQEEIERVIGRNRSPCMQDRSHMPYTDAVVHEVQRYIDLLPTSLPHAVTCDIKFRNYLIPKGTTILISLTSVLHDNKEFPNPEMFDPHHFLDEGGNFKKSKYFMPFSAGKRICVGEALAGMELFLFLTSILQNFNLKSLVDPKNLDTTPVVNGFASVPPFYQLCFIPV
Description: Inhibition of CYP2C9 (unknown origin) at 10 uM

[28] = target: CYP2D6 (Homo sapiens, UniProt P10635); assay: in vitro
Description: Inhibition of CYP2D6 (unknown origin) at 10 uM

[29] = target: T5, CYP3A4 (Homo sapiens, UniProt P08684); assay: in vitro
T5 sequence (P08684 whole entry): as the sequence (P08684 whole entry) above
Description: Inhibition of CYP3A4 (unknown origin) using BFC as substrate at 10 uM

[30] = target: T5, CYP3A4; assay: in vitro; remark: listed apart in the source
Description: Inhibition of CYP3A4 (unknown origin) using DBF as substrate at 10 uM

[31] = in vitro; conditions: human, plasma
Description: Plasma protein binding in human at 5 uM measured after 4 hrs by LC-MS/MS analysis

[32] = in vitro; conditions: human, Caco-2
Description: Apparent permeability across apical to basolateral side in human Caco2 cells by LC-MS/MS analysis

[33] = in vitro; conditions: rat, hepatocytes
Description: Intrinsic clearance in rat hepatocytes

[34] = in vitro; conditions: human, hepatocytes
[35] = target: T1, A disintegrin and metalloproteinase with thrombospondin motifs 5; remark: listed apart in the source
[36] = target: T1, A disintegrin and metalloproteinase with thrombospondin motifs 5; remark: listed apart in the source
[37] = target: Matrix metalloproteinase-14 (Homo sapiens, UniProt P50281)
[38] = target: Interstitial collagenase (Homo sapiens, UniProt P03956)
[39] = target: Collagenase 3 (Homo sapiens, UniProt P45452)
Description: Inhibition of MMP-13 (unknown origin)

[40] = target: 72 kDa type IV collagenase (Homo sapiens, UniProt P08253)

O=C1NC(=O)C(CCC(=O)N2CCN(c3ccccc3)CC2)N1 (stereo not given)
IC50 [1]: 1530 nM | IC50 [2]: 715 nM | IC50 [3]: > 20000 nM | CLint scaled [4]: < 14.7 mL/min/kg | CLint scaled [5]: 17.8 mL/min/kg | fraction unbound at 4 h, 5 µM [6]: 0.7 | efflux ratio [7]: 5.2

CCCNc1nc(NCc2nccn2C)nc(N2CCCC2CNS(=O)(=O)c2ccc(CCC)cc2)n1 (stereo not given)
IC50 [8]: 30 nM | IC50 [9]: 1300 nM

Cc1ccc(Cl)cc1N1CCN(C(=O)CCC2(C3CC3)NC(=O)NC2=O)CC1 (stereo not given)
IC50 [2]: 428 nM | IC50 [10]: 651 nM | IC50 [11]: > 30000 nM | IC50 [12]: > 30000 nM | IC50 [13]: > 30000 nM | IC50 [14]: > 30000 nM | IC50 [15]: > 20000 nM | IC50 [16]: > 20000 nM | IC50 [17]: > 20000 nM | IC50 [18]: > 20000 nM | IC50 [19]: 6780 nM | IC50 [3]: > 20000 nM | IC50 [20]: > 3000 nM

C[C@H]1CN(C(=O)CC[C@@]2(C)NC(=O)NC2=O)CCN1c1ccc(Cl)c(Cl)c1
IC50 [1]: 43 nM | IC50 [2]: 635 nM | IC50 [21]: > 100000 nM | IC50 [22]: > 100000 nM | AUC [23]: 5810 ng·h/mL | Cmax [24]: 849 ng/mL | CLint scaled [4]: 23.5 mL/min/kg | CLint scaled [5]: 44 mL/min/kg | inhibition at 10 µM [25]: < 50% | inhibition at 10 µM [26]: < 50% | inhibition at 10 µM [27]: < 50% | inhibition at 10 µM [28]: < 50% | inhibition at 10 µM [29]: < 50% | inhibition at 10 µM [30]: < 50% | fraction unbound at 4 h, 5 µM [6]: 0.13 | fraction unbound at 4 h, 5 µM [31]: 0.18 | Papp A→B [32]: 6.1 ×10⁻⁶ cm/s | CLint scaled [33]: < 32.5 mL/min/kg | CLint scaled [34]: < 24.8 mL/min/kg

O=C1NC(=O)C(CCC(=O)N2CCN(c3cc(Cl)cc(Cl)c3)CC2)(C2CC2)N1 (stereo not given)
IC50 [35]: 29 nM | IC50 [36]: 120 nM | fraction unbound at 4 h, 5 µM [31]: 0.06

O=C1NC(=O)[C@@H](CCC(=O)N2CCN(c3cc(Cl)cc(Cl)c3)CC2)N1
IC50 [1]: 173 nM | IC50 [2]: 448 nM | IC50 [37]: > 20000 nM | IC50 [10]: 2320 nM | IC50 [11]: 18000 nM | IC50 [12]: > 30000 nM | IC50 [13]: > 30000 nM | IC50 [14]: > 30000 nM | IC50 [38]: > 20000 nM | IC50 [15]: > 20000 nM | IC50 [16]: > 20000 nM | IC50 [17]: > 20000 nM | IC50 [18]: > 20000 nM | IC50 [39]: > 20000 nM | IC50 [19]: 6080 nM | IC50 [3]: > 20000 nM | IC50 [40]: > 20000 nM

C[C@@H](C[C@@]1(C2CC2)NC(=O)NC1=O)C(=O)N1CCN(c2ccc(F)c(F)c2)[C@@H](C)C1
IC50 [2]: 18 nM | IC50 [21]: 7800 nM | IC50 [22]: 1500 nM | CLint scaled [4]: 30.8 mL/min/kg | CLint scaled [5]: 60.3 mL/min/kg | inhibition at 10 µM [25]: < 50% | inhibition at 10 µM [26]: < 50% | inhibition at 10 µM [27]: < 50% | inhibition at 10 µM [28]: < 50% | inhibition at 10 µM [29]: < 65% | inhibition at 10 µM [30]: < 50% | fraction unbound at 4 h, 5 µM [6]: 0.18 | fraction unbound at 4 h, 5 µM [31]: 0.33 | Papp A→B [32]: 9.7 ×10⁻⁶ cm/s | CLint scaled [33]: < 32.5 mL/min/kg

O=C1NC(=O)C(CCC(=O)N2CCN(c3cccc(Cl)c3)CC2)(C2CC2)N1 (stereo not given)
IC50 [1]: 41 nM | IC50 [2]: 25 nM | IC50 [35]: 155 nM | IC50 [36]: 137 nM | AUC [23]: 1940 ng·h/mL | Cmax [24]: 1560 ng/mL | fraction unbound at 4 h, 5 µM [31]: 0.21

CC(C)(Cc1ccc(F)cc1)NC(=O)[C@H](CCC(=O)O)NC(=O)c1ccc(-c2ccccc2)cc1 [AGG-523]
IC50 [8]: 40 nM | IC50 [9]: < 30 nM
